# ChEMBL document CHEMBL1151099, “Synthesis of new TNF- Inhibitors and their biological properties” (Bioorg Med Chem Lett, 1996)
# Assays:
# Assay type in all cases: functional
# Mus musculus [1] = organism: Mus musculus; experiment: In vitro inhibitory activity against TNF-alpha production in mouse macrophages stimulated with LPS
# Mus musculus [2] = experiment: Protection against LPS-induced death of D-galactosamine-sensitized mice (10 in number) at specified dose of 0 mg/kg on day 7
# Mus musculus [3] = experiment: Protection against LPS-induced death of D-galactosamine-sensitized mice (10 in number) at specified dose of 100 mg/kg on day 7
# Mus musculus [4] = experiment: Protection against LPS-induced death of D-galactosamine-sensitized mice (10 in number) at specified dose of 50 mg/kg on day 7
SMILES,IC50 (Mus musculus [1]),Survival rate (Mus musculus [2]),Survival rate (Mus musculus [3]),Survival rate (Mus musculus [4])
CC(=O)Oc1cc2c(cc1OC(C)=O)C1Cc3cc(OC(C)=O)c(OC(C)=O)cc3C(C2)N1C(C)=O,> 100 µM,,,
COc1cc2c(cc1OC)C1Cc3cc(OC)c(OC)cc3C(C2)N1C(C)=O,38 µM,,,
CCCC(=O)N1C2Cc3cc4c(cc3C1Cc1cc3c(cc12)OCO3)OCO4,11 µM,0 number of mice,5 number of mice,4 number of mice
CC(=O)N1C2Cc3cc4c(cc3C1Cc1cc3c(cc12)OCO3)OCO4,13 µM,0 number of mice,9 number of mice,7 number of mice
CNC(=O)N1C2Cc3cc4c(cc3C1Cc1cc3c(cc12)OCO3)OCO4,15 µM,0 number of mice,6 number of mice,6 number of mice
O=C(CCO)N1C2Cc3cc4c(cc3C1Cc1cc3c(cc12)OCO3)OCO4,27 µM,0 number of mice,6 number of mice,5 number of mice
O=CN1C2Cc3cc4c(cc3C1Cc1cc3c(cc12)OCO3)OCO4,22 µM,0 number of mice,7 number of mice,7 number of mice
NCCN1C2Cc3cc4c(cc3C1Cc1cc3c(cc12)OCO3)OCO4,14 µM,0 number of mice,8 number of mice,8 number of mice
CCCN1C2Cc3cc4c(cc3C1Cc1cc3c(cc12)OCO3)OCO4,56 µM,,,
CCN1C2Cc3cc4c(cc3C1Cc1cc3c(cc12)OCO3)OCO4,27 µM,0 number of mice,10 number of mice,9 number of mice
COCC(=O)N1C2Cc3cc4c(cc3C1Cc1cc3c(cc12)OCO3)OCO4,17 µM,,,
CC(=O)N1C2Cc3cc4c(cc3C1Cc1cc(O)c(O)cc12)OCO4 (stereo not drawn),46 µM,,,
O=C(c1ccccc1)N1C2Cc3cc4c(cc3C1Cc1cc3c(cc12)OCO3)OCO4,38 µM,,,
CCOC(=O)N1C2Cc3cc4c(cc3C1Cc1cc3c(cc12)OCO3)OCO4,31 µM,0 number of mice,3 number of mice,3 number of mice
Oc1cc2c(cc1O)C1Cc3cc4c(cc3C(C2)N1)OCO4 (stereo not drawn),44 µM,,,
CN1C2Cc3cc4c(cc3C1Cc1cc3c(cc12)OCO3)OCO4,19 µM,,,
c1c2c(cc3c1OCCO3)C1Cc3cc4c(cc3C(C2)N1)OCCO4,22 µM,0 number of mice,4 number of mice,1 number of mice

SMILES,IC50 (Mus musculus [1]),Survival rate (Mus musculus [2]),Survival rate (Mus musculus [3]),Survival rate (Mus musculus [4])
c1c2c(cc3c1OCO3)C1Cc3cc4c(cc3C(C2)N1)OCO4,15 µM,0 number of mice,10 number of mice,7 number of mice
CCCCCC(=O)N1C2Cc3cc4c(cc3C1Cc1cc3c(cc12)OCO3)OCO4,> 100 µM,,,
COc1cc2c(cc1OC)C1Cc3cc4c(cc3C(C2)N1)OCO4 (stereo not drawn),100 µM,,,
CCCCN1C2Cc3cc4c(cc3C1Cc1cc3c(cc12)OCO3)OCO4,58 µM,,,
CCOC(=O)CC(=O)N1C2Cc3cc4c(cc3C1Cc1cc3c(cc12)OCO3)OCO4,26 µM,0 number of mice,3 number of mice,2 number of mice
CC(=O)N1C2Cc3cc4c(cc3C1Cc1cc3c(cc12)OCCO3)OCCO4,34 µM,0 number of mice,7 number of mice,4 number of mice
CC(=O)N1C2Cc3cc(O)c(O)cc3C1Cc1cc(O)c(O)cc12,> 100 µM,,,
NCCCN1C2Cc3cc4c(cc3C1Cc1cc3c(cc12)OCO3)OCO4,52 µM,,,
CCOC(=O)C(=O)N1C2Cc3cc4c(cc3C1Cc1cc3c(cc12)OCO3)OCO4,15 µM,0 number of mice,2 number of mice,3 number of mice
CCC(=O)N1C2Cc3cc4c(cc3C1Cc1cc3c(cc12)OCO3)OCO4,11 µM,0 number of mice,8 number of mice,8 number of mice
COc1cc2c(cc1OC)C1Cc3cc4c(cc3C(C2)N1C(C)=O)OCO4 (stereo not drawn),22 µM,,,
OCCN1C2Cc3cc4c(cc3C1Cc1cc3c(cc12)OCO3)OCO4,36 µM,0 number of mice,9 number of mice,7 number of mice
COc1cc2c(cc1OC)C1Cc3cc(OC)c(OC)cc3C(C2)N1,> 100 µM,,,
Oc1cc2c(cc1O)C1Cc3cc(O)c(O)cc3C(C2)N1,> 100 µM,,,
O=C(CO)N1C2Cc3cc4c(cc3C1Cc1cc3c(cc12)OCO3)OCO4,20 µM,0 number of mice,9 number of mice,6 number of mice
CC(=O)CCCCn1c(=O)c2c(ncn2C)n(C)c1=O [PENTOXIFYLLINE],68 µM,0 number of mice,4 number of mice,
